Laboratory results published in patent US20260041680A1, “METHODS OF TREATING CANCER WITH LONG-ACTING TOPOISOMERASE I INHIBITOR” (priority 2022, published 2026).
Read-outs that look alike come from different tables or passages of the source.

Tests used:
[1] = tested on: Panc-1 human pancreatic cancer xenograft
[2] = in vivo, po
[3] = tested on: MKN45 human gastric cancer xenograft
[4] = tested on: HT-29 human colon cancer xenograft; assay: HT-29 human colon cancer xenograft, antitumor activity and tolerability; type: in vivo, nude rat
[5] = tested on: NCI-N87 human gastric cancer xenograft
[6] = tested on: H446 human small cell lung cancer xenograft
[7] = tested on: HCT116 human colon cancer xenograft
[8] = tested on: H460 human lung cancer xenograft
[9] = SN-38 formed from CPT-11; evident from high SN-38G/SN-38; cited from earlier work
[10] = pegamotecan; cited from earlier work
[11] = PLX038 200 mg/kg IV once a week for 2 weeks
[12] = PLX038 IV 200 mg/kg once a week for 2 weeks
[13] = cisplatin IP 5 mg/kg once a week for 2 weeks
[14] = PLX038 200 mg/kg, irinotecan 60 mg/kg, IV once a week for 2 weeks
[15] = irinotecan 60 mg/kg IV once a week for 2 weeks

Compound: Nc1ccn([C@@H]2O[C@H](CO)[C@@H](O)C2(F)F)c(=O)n1 [gemcitabine]
- TGI ([1]; gemcitabine IP 50 mg/kg once a week for 2 weeks): 32.5%

Compound: CNCc1ccc(-c2[nH]c3cc(F)cc4c3c2CCNC4=O)cc1 [rucaparib]
- rucaparib pre-dose (trough) concentrations at steady state [2]: reasonably consistent with prior data

Compound: O-[7-(tetra-polyethylene glycol ether)-carboxamido-1-cyano-2-heptyl]-N-(10′-methoxy-7′-ethyl-camptothecin)-N-[4′-(diethylcarbamoyl)phenyl)] carbamate [PLX038]
- TGI [3, 11]: 59.0%
- tumor growth inhibition (TGI) ([4]; PLX038 50 mg/kg IV once a week for 2 weeks): 13%
- tumor growth inhibition (TGI) ([4]; PLX038 100 mg/kg IV once a week for 2 weeks): 35%
- tumor growth inhibition (TGI) [4, 11]: 61%
- TGI [5, 11]: 34.4%
- TGI [1, 12]: 73.1%
- TGI [6, 12]: 41.0%
- TGI [7, 11]: 46.6%
- TGI [8, 12]: 30%

Compound: N.N.[Cl][Pt][Cl] [cisplatin]
- TGI [6, 13]: 36.1%
- TGI [8, 13]: 33%

Compound: CCc1c2c(nc3ccc(OC(=O)N4CCC(N5CCCCC5)CC4)cc13)-c1cc3c(c(=O)n1C2)COC(=O)[C@]3(O)CC [irinotecan]
- tolerability [3, 14]: well-tolerated
- TGI [3, 15]: 45.6%
- tumor growth inhibition (TGI) ([4]; irinotecan 70/50 mg/kg IV once a week for 2 weeks): 45%
- loss in body weight ([4]; irinotecan at 70 mg/kg IV (second dose lowered to 50 mg/kg)): 16%
- liver/GI exposure of SN-38 [9]: high
- tolerability [5, 14]: well-tolerated
- TGI [5, 15]: 57.8%
- tolerability [7, 14]: well tolerated
- TGI [7, 15]: 65.4%

Compound: pegamotecan
- maximum tolerated dose (MTD) [10]: 3.24 g/m^2
